Results: ChEMBL document CHEMBL3046147, “Synthesis and Herbicidal Activity of 1-Arylalkyl-3-pyrrolin-2-one Derivatives” (J Pestic Sci, 2000)

How the values were obtained:
Echinochloa oryzicola [1] = experiment: Pre-emergence herbicide activity against Echinochloa oryzicola under greenhouse condition measured after 14 to 20 days; assay type: functional
[2] = test system: Schoenoplectiella juncoides; experiment: Herbicide activity against Schoenoplectiella juncoides under greenhouse condition compound treated at emergence-stage measured after 14 to 20 days; assay type: functional
Echinochloa oryzicola [3] = experiment: Herbicide activity against Echinochloa oryzicola under greenhouse condition compound treated at 2 leaf-stage measured after 14 to 20 days; assay type: functional
Sagittaria pygmaea = experiment: Herbicide activity against Sagittaria pygmaea under greenhouse condition compound treated at 0.5 leaf-stage measured after 14 to 20 days; assay type: functional
Oryza sativa [4] = experiment: Phytotoxicity against two-leaf stage Oryza sativa cv. Nihonbare (rice) planted 1 cm depth measured after […]; assay type: organism-based; settings: in vivo
Oryza sativa [5] = experiment: Phytotoxicity against two-leaf stage Oryza sativa cv. Nihonbare (rice) planted 3 cm depth measured after […]; assay type: organism-based; settings: in vivo

CC1=C(c2ccccc2)C(=O)N(C(C)(C)c2csc(-c3ccccc3)n2)C1
MED (Echinochloa oryzicola [1]): 40 g/acre | MED [2]: 40 g/acre | MED (Echinochloa oryzicola [3]): <5 g/acre | MED (Sagittaria pygmaea): 40 g/acre | MTD (Oryza sativa [4]): 40 g/acre | MTD (Oryza sativa [5]): 40 g/acre

CC1=C(c2ccccc2)C(=O)N(C(C)(C)c2nc3cccc(Cl)c3s2)C1
MED (Echinochloa oryzicola [1]): 0.156 g/acre | MED [2]: 40 g/acre | MED (Echinochloa oryzicola [3]): <5 g/acre | MED (Sagittaria pygmaea): 80 g/acre | MTD (Oryza sativa [4]): 10 g/acre | MTD (Oryza sativa [5]): 20 g/acre

COc1ccc(C2=C(C)CN(C(C)(C)c3nc4ccccc4s3)C2=O)cc1
MED (Echinochloa oryzicola [1]): 20 g/acre | MED [2]: 80 g/acre | MED (Echinochloa oryzicola [3]): <5 g/acre | MED (Sagittaria pygmaea): 80 g/acre | MTD (Oryza sativa [4]): 10 g/acre | MTD (Oryza sativa [5]): 40 g/acre

CC1=C(/C=C/c2ccccc2)C(=O)N(C(C)(C)c2nc3ccccc3s2)C1
MED (Echinochloa oryzicola [1]): 160 g/acre | MED [2]: 80 g/acre | MED (Echinochloa oryzicola [3]): <5 g/acre | MED (Sagittaria pygmaea): 80 g/acre | MTD (Oryza sativa [4]): 80 g/acre | MTD (Oryza sativa [5]): 80 g/acre

CC1=C(c2ccccc2Cl)C(=O)N(C(C)(C)c2nc3ccccc3s2)C1
MED (Echinochloa oryzicola [1]): 2.5 g/acre | MED [2]: 10 g/acre | MED (Echinochloa oryzicola [3]): 2.5 g/acre | MED (Sagittaria pygmaea): 10 g/acre | MTD (Oryza sativa [4]): 1.25 g/acre | MTD (Oryza sativa [5]): 2.5 g/acre

COc1cccc2sc(C(C)(C)N3CC(C)=C(c4ccccc4)C3=O)nc12
MED (Echinochloa oryzicola [1]): 10 g/acre | MED [2]: 80 g/acre | MED (Echinochloa oryzicola [3]): <5 g/acre | MED (Sagittaria pygmaea): 80 g/acre | MTD (Oryza sativa [4]): 20 g/acre | MTD (Oryza sativa [5]): 40 g/acre

CC1=C(c2cccnc2)C(=O)N(C(C)(C)c2nc3ccccc3s2)C1
MED (Echinochloa oryzicola [1]): 2.5 g/acre | MED [2]: 2.5 g/acre | MED (Echinochloa oryzicola [3]): <5 g/acre | MED (Sagittaria pygmaea): <5 g/acre | MTD (Oryza sativa [4]): 5 g/acre | MTD (Oryza sativa [5]): 10 g/acre

CC1=C(c2ccccc2)C(=O)N(C(C)(C)c2nc(C(C)(C)C)cs2)C1
MED (Echinochloa oryzicola [1]): 5 g/acre | MED [2]: 80 g/acre | MED (Echinochloa oryzicola [3]): 5 g/acre | MED (Sagittaria pygmaea): 80 g/acre | MTD (Oryza sativa [4]): 5 g/acre | MTD (Oryza sativa [5]): 10 g/acre

CC1=C(c2ccc(-c3ccccc3)cc2)C(=O)N(C(C)(C)c2nc3ccccc3s2)C1
MED (Echinochloa oryzicola [1]): <10 g/acre | MED [2]: 160 g/acre | MED (Echinochloa oryzicola [3]): <5 g/acre | MED (Sagittaria pygmaea): 160 g/acre | MTD (Oryza sativa [4]): 80 g/acre | MTD (Oryza sativa [5]): 80 g/acre

CC1=C(Oc2ccc(Cl)cc2)C(=O)N(C(C)(C)c2nc3ccccc3s2)C1
MED (Echinochloa oryzicola [1]): 80 g/acre | MED [2]: 160 g/acre | MED (Echinochloa oryzicola [3]): <5 g/acre | MED (Sagittaria pygmaea): 160 g/acre | MTD (Oryza sativa [4]): 40 g/acre | MTD (Oryza sativa [5]): 40 g/acre

CC1=C(c2ccc(Cl)cc2)C(=O)N(C(C)(C)c2nc3ccccc3s2)C1
MED (Echinochloa oryzicola [1]): 80 g/acre | MED [2]: 160 g/acre | MED (Echinochloa oryzicola [3]): <5 g/acre | MED (Sagittaria pygmaea): 160 g/acre | MTD (Oryza sativa [4]): 20 g/acre | MTD (Oryza sativa [5]): 40 g/acre

CC1=C(c2ccccc2)C(=O)N(C(C)(C)c2nc3cc(Cl)ccc3s2)C1
MED (Echinochloa oryzicola [1]): 0.625 g/acre | MED [2]: 40 g/acre | MED (Echinochloa oryzicola [3]): <5 g/acre | MED (Sagittaria pygmaea): 80 g/acre | MTD (Oryza sativa [4]): 10 g/acre | MTD (Oryza sativa [5]): 40 g/acre
